The values below come from ChEMBL document CHEMBL3808348, “Rational Design, Synthesis, and Biological Evaluation of 7-Azaindole Derivatives as Potent Focused Multi-Targeted Kinase Inhibitors” (J Med Chem, 2016).

The target of assay [1] is Epidermal growth factor receptor (Homo sapiens, UniProt P00533). In words: Inhibition of GST-tagged human recombinant EGFR (668 to1210 residues) expressed in baculovirus using Fluorescein-Poly GT as substrate at 100 nM.
Another assay relates to HepG2. In words: Antiproliferative activity against human HepG2 cells after 72 hrs by MTT assay. In kind it is functional, cell-based. The settings on record: HepG2, 72 h. In general terms: Formazan colour is commonly taken as a measure of viable cells.
For another assay, the system named is HUVEC. In words: Antiangiogenic activity in HUVEC after 72 hrs by MTT assay. In kind it is functional, cell-based. The settings on record: Homo sapiens.
Assay [2] addresses Serine/threonine-protein kinase B-raf (Homo sapiens) (UniProt P15056). In words: Inhibition of full length GST-tagged human recombinant BRAF expressed in baculovirus using Fluorescein-MAP2K1 as substrate at 100 nM.
For assay [3], the target named is Fibroblast growth factor receptor 2 (Homo sapiens) (UniProt P21802). In words: Inhibition of His-tagged human recombinant FGFR2 (403 to 822 residues) expressed in baculovirus using Fluorescein-Poly GT as substrate at 100 nM.
In assay [4] the target is Platelet-derived growth factor receptor alpha (Homo sapiens, UniProt P16234). In words: Inhibition of full length GST-tagged human recombinant PDGFRalpha expressed in baculovirus using Fluorescein-Poly GT as substrate at 100 nM.
For assay [5], the target named is Vascular endothelial growth factor receptor 2 (Homo sapiens) (UniProt P35968). In words: Inhibition of full length His-tagged human recombinant VEGFR2 expressed in baculovirus using Fluorescein-Poly GT as substrate at 100 nM.
Assay [6] has as its target Proto-oncogene tyrosine-protein kinase Src (Homo sapiens, UniProt P12931). In words: Inhibition of full length His-tagged human recombinant cSRC expressed in baculovirus using Fluorescein-Poly GT as substrate at 100 nM.
The nature of assay [7]: Antiangiogenic activity in HRMEC after 72 hrs by MTT assay. It counts as functional, Homo sapiens.
A further assay has as its system HT-29. In words: Antiproliferative activity against human HT-29 cells after 72 hrs by MTT assay. It counts as functional, cell-based. The settings on record: HT-29, 72 h.
The next assay deals with A549. In words: Antiproliferative activity against human A549 cells after 72 hrs by MTT assay. In kind it is functional, cell-based. The following applies: A549, 72 h.
In a further assay the test system is NCI-H1975. In words: Antiproliferative activity against human NCI-H1975 cells harboring EGFR L858R/T790M double mutant after 72 hrs by MTT assay. It counts as functional, cell-based. The settings on record: NCI-H1975, 72 h.
The test system of another assay is MDA-MB-231. In words: Antiproliferative activity against human MDA-MB-231 cells after 72 hrs by MTT assay. The following applies: MDA-MB-231, 72 h. It counts as functional, cell-based.
Assay [8] is described as follows: Antiproliferative activity against human BxPC3 cells after 72 hrs by MTT assay. In kind it is functional, cell-based. The settings on record: BXPC-3, 72 h.
Assay [9] can be described thus: Antiproliferative activity against human Caki2 cells after 72 hrs by MTT assay. In kind it is functional, cell-based. The settings on record: CAKI-2, 72 h.
Assay [10] can be described thus: Antiproliferative activity against human PC3 cells after 72 hrs by MTT assay. In kind it is functional, cell-based. The settings on record: PC-3, 72 h.

Bounds are passed on as bounds.

Sequence of Epidermal growth factor receptor (P00533 whole entry, the tested form may be a part): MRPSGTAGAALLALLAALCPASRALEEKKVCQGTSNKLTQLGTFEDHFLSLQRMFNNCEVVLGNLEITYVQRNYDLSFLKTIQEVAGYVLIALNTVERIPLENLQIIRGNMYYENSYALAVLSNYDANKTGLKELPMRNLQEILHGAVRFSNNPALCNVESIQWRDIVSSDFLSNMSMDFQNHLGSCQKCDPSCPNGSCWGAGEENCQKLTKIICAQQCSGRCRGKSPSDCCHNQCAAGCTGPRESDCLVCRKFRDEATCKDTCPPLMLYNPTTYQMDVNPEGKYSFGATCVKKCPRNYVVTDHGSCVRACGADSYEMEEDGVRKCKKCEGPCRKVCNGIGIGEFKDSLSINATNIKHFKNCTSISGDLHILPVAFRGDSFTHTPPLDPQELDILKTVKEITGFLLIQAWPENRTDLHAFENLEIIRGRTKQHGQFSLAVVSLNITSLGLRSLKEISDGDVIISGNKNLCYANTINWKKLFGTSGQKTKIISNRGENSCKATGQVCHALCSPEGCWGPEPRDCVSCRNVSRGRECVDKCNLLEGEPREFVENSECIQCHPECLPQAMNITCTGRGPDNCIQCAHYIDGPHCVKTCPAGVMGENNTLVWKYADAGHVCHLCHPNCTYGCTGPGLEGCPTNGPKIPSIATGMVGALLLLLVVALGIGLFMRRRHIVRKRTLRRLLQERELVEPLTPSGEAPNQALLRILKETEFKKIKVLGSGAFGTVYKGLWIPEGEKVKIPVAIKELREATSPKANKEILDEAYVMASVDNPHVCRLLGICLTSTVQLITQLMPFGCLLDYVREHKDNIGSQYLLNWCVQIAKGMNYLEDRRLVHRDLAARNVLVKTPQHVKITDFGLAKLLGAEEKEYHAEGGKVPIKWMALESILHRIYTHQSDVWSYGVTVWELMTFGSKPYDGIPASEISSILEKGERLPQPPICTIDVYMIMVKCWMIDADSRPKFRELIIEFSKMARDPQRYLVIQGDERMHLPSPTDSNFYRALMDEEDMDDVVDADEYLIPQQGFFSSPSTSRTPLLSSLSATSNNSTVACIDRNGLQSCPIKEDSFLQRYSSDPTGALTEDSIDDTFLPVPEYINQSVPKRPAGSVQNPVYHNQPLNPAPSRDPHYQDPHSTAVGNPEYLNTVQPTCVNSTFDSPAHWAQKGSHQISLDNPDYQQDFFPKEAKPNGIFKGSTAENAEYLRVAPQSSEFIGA
Sequence of Vascular endothelial growth factor receptor 2 (Homo sapiens) (P35968 whole entry): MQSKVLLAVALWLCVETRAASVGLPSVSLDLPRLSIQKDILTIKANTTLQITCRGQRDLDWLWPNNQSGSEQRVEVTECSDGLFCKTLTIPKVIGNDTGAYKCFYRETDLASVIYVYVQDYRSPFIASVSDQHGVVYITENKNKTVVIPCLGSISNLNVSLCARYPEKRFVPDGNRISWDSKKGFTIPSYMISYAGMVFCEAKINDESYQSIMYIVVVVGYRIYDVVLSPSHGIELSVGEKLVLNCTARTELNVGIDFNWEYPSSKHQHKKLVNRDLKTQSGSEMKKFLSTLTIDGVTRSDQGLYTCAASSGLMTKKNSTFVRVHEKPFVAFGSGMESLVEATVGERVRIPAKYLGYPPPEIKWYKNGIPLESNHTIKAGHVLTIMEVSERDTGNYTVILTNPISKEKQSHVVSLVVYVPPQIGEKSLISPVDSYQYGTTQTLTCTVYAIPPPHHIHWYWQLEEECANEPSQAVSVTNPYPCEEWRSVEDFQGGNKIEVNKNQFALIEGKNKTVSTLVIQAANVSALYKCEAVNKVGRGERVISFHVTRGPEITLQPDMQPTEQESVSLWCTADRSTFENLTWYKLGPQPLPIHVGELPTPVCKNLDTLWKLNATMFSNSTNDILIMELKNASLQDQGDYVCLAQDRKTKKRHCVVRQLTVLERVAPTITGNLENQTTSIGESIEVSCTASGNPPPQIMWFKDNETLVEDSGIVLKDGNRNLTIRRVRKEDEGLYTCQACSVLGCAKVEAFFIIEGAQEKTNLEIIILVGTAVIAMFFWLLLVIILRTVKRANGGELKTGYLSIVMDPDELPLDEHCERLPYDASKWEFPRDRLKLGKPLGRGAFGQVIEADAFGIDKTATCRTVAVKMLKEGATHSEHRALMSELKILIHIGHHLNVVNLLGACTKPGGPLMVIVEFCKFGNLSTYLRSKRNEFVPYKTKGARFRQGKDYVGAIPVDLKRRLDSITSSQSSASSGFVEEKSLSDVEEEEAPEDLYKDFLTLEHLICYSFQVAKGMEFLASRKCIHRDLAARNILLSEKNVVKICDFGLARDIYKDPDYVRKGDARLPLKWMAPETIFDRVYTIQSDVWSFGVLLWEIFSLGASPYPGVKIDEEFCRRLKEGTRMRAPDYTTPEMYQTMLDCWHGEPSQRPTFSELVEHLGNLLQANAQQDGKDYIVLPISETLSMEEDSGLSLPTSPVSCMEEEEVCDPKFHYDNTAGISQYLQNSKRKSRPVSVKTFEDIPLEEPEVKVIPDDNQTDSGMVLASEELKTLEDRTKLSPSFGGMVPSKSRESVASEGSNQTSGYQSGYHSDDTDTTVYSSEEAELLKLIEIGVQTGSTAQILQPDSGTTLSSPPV
Sequence of Proto-oncogene tyrosine-protein kinase Src (P12931 2-536 limits assumed): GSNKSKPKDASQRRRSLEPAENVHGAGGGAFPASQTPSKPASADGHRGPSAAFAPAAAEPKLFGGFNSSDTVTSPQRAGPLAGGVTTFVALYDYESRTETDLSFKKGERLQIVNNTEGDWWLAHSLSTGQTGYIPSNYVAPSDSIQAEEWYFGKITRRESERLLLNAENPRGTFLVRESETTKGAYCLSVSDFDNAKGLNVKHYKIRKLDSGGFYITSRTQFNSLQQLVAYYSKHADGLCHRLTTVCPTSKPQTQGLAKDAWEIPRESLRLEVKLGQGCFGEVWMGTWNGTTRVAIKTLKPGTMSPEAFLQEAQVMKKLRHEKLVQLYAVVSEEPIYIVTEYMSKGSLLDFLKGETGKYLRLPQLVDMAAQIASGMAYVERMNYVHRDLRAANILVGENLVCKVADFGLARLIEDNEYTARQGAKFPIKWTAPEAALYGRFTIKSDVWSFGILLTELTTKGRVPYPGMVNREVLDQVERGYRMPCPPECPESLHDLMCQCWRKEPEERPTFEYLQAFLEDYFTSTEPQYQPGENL
Sequence of Serine/threonine-protein kinase B-raf (Homo sapiens) (P15056 whole entry, the tested form may be a part): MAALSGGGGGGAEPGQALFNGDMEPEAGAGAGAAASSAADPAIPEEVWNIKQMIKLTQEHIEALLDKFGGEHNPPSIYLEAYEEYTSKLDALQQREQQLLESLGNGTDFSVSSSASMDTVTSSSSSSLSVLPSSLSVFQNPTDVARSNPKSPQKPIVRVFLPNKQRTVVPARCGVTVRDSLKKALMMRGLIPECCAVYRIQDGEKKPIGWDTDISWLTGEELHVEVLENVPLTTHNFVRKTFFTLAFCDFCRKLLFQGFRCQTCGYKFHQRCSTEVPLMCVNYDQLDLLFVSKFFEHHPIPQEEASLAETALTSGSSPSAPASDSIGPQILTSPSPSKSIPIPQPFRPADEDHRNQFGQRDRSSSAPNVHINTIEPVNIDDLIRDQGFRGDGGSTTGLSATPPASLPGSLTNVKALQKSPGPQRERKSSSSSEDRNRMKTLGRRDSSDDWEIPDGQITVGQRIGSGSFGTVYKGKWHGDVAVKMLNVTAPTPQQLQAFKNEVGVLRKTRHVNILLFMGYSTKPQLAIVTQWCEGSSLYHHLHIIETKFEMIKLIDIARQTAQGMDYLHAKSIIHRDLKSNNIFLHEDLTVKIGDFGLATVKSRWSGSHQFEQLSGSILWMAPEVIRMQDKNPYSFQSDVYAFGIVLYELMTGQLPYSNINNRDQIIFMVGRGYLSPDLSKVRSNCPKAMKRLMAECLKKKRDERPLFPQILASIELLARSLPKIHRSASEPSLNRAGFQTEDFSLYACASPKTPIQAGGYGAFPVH
Sequence of Platelet-derived growth factor receptor alpha (P16234 whole entry): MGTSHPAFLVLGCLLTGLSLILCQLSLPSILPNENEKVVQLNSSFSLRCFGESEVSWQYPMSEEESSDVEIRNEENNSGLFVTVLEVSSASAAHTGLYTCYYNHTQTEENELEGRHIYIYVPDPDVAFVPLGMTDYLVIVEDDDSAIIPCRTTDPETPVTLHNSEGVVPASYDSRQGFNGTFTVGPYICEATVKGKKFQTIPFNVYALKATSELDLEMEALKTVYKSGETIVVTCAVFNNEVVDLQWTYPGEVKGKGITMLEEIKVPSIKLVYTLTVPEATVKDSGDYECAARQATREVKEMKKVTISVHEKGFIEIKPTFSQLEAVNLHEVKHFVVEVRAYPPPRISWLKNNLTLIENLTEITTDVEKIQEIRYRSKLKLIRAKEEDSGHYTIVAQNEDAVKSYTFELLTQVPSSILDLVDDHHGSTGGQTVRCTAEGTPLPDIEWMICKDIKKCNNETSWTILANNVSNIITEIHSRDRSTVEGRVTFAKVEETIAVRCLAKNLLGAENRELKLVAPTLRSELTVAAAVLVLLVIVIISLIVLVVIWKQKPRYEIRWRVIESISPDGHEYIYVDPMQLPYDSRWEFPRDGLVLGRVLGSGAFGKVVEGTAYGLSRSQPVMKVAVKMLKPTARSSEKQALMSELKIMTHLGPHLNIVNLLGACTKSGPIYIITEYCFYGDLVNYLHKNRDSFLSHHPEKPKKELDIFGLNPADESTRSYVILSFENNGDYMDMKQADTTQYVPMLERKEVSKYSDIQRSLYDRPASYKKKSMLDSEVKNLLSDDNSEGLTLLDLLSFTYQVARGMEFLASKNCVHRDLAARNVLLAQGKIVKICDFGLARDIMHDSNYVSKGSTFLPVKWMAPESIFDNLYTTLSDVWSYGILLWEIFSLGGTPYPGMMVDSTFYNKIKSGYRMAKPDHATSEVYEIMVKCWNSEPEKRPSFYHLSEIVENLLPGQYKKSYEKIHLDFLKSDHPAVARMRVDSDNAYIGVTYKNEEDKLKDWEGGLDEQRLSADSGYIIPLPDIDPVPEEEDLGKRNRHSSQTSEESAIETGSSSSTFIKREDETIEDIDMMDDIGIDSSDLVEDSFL

For `COC(=O)c1cc2cc(NCc3cc(NC(=O)c4cncc(C(F)(F)F)c4)ccc3C)cnc2[nH]1`, the inhibition in assay [1] was determined as 78%; in assay [2], 73%; in assay [3] it was 13%; in [4], 93%; in assay [5] it was 73%; in assay [6] it was 101%. The EC50 in the assay with HepG2 was found to be 0.963 µM; in the assay on HUVEC, 0.39 µM.

As for `COC(=O)c1cc2cc(CCc3cc(NC(=O)c4ccc(CN5CCC(N(C)C)C5)c(C(F)(F)F)c4)ccc3C)cnc2[nH]1` (centres undefined), the inhibition in assay [1] was 97%; in assay [2] it was 64%; in assay [3], 101%; in [4], 105%; in assay [5] it was 102%; in [6] it was 101%. The EC50 is > 1 µM with HepG2 and 0.171 µM with HUVEC.

`COC(=O)c1cc2cc(COc3cc(NC(=O)c4ccc(CN5CCC(N(C)C)C5)c(C(F)(F)F)c4)ccc3C)cnc2[nH]1` (centres undefined): the inhibition was 93% in assay [1]; 15% in assay [2]; 69% in assay [3]; 96% in assay [4]; 86% in assay [5]; 87% in assay [6]. Also, the results for the EC50 in the assay with HepG2 and in the assay with HUVEC were > 1 µM and 0.426 µM, respectively.

Turning to `CC(=O)c1cc2cc(CCc3cc(NC(=O)c4ccc(CN5CCC(N(C)C)C5)c(C(F)(F)F)c4)ccc3C)cnc2[nH]1` (centres undefined), the EC50 in assay [7] stood at 0.304 µM; in the assay with HepG2, 0.248 µM; in the assay with HUVEC, 0.163 µM; in the assay with HT-29 it was 0.303 µM; with A549, 0.293 µM. The inhibition in assay [1] came to 83%; in [2], 60%; in [3], 81%; in assay [4], 89%; in assay [5] it was 99%; in assay [6] it was 97%.

As to `COC(=O)c1cc2cc(NC(=O)c3cc(NC(=O)c4ccc(CN5CCC(N(C)C)C5)c(C(F)(F)F)c4)ccc3C)cnc2[nH]1` (centres undefined), the inhibition turned out to be 76% in assay [1]; 46% in assay [2]; 94% in assay [3]; 94% in [4]; 93% in assay [5]; 100% in assay [6]. The EC50 in the assay on HepG2 came to 0.977 µM; with HUVEC it was 0.631 µM.

On to `COC(=O)c1cc2cc(NCc3cc(NC(=O)c4ccnc(C)c4)ccc3C)cnc2[nH]1`, for which the inhibition in assay [1] is 49%; in assay [2] it was 85%; in [3], -6%; in [4], 82%; in assay [5], 46%; in assay [6], 51%. Besides, the EC50 in the assay on HepG2 was > 1 µM; in the assay with HUVEC, 0.986 µM.

`CN(C)C/C=C/C(=O)Nc1cc2c(Nc3ccc(F)c(Cl)c3)ncnc2cc1O[C@H]1CCOC1` [AFATINIB]: the EC50 is 0.116 µM in the assay with NCI-H1975, > 1 µM in the assay on MDA-MB-231 and > 1 µM in assay [8].

Take `COC(=O)c1cc2cc(NCc3cc(NC(=O)c4cncc(C)c4)ccc3C)cnc2[nH]1`: the inhibition was determined as 72% in assay [1]; 95% in assay [2]; 19% in assay [3]; 93% in assay [4]; 89% in assay [5]; 89% in assay [6]. The EC50 in the assay on HepG2 is 0.51 µM; in the assay with HUVEC, > 1 µM.

In the case of `COC(=O)c1cc2cc(NCc3cc(NC(=O)c4ccc5[nH]ccc5c4)ccc3C)cnc2[nH]1`, the inhibition was 45% in assay [1]; 65% in assay [2]; -4% in [3]; 87% in [4]; 59% in [5]; 59% in assay [6]. Also, the EC50 in the assay with HepG2 is > 1 µM; in the assay on HUVEC it was 0.199 µM.

For `COC(=O)c1cc2cc(NC(=O)c3cc(NC(=O)c4ccc(CN5CCN(C)CC5)cc4)ccc3C)cnc2[nH]1`, the inhibition in assay [1] is 65%; in [2], 71%; in [3], 8%; in assay [4] it was 41%; in [5], 97%; in assay [6] it was 94%. Also, the EC50 in the assay with HepG2 and in the assay with HUVEC was > 1 µM throughout.

`CNC(=O)c1cc(Oc2ccc(NC(=O)Nc3ccc(Cl)c(C(F)(F)F)c3)c(F)c2)ccn1` [REGORAFENIB]: the EC50 with HT-29 and in the assay on A549 was > 1 µM each time.

With `CNC(=O)c1cc2cc(NCc3cc(NC(=O)c4ccc(CN5CCC(N(C)C)C5)c(C(F)(F)F)c4)ccc3C)cnc2[nH]1` (centres undefined), the EC50 came out at 0.081 µM in assay [7]; 0.179 µM in the assay with HepG2; 0.083 µM with HUVEC; 0.227 µM in the assay on HT-29; 0.495 µM with A549. For the same compound, the inhibition was found to be 101% in [1]; 93% in [2]; 98% in [3]; 94% in [4]; 87% in assay [5]; 99% in assay [6].

Consider `COC(=O)c1cc2cc(NCc3cc(NC(=O)c4ccc5c(c4)OCO5)ccc3C)cnc2[nH]1`, for which the inhibition in assay [1] came out at 40%; in assay [2], 77%; in assay [3] it was 3%; in assay [4] it was 91%; in [5], 58%; in assay [6] it was 68%. In addition, the EC50 in the assay on HepG2 is > 1 µM; with HUVEC, 0.298 µM.

On to `CNC(=O)c1cc(Oc2ccc(NC(=O)Nc3ccc(Cl)c(C(F)(F)F)c3)cc2)ccn1` [SORAFENIB], for which the EC50 in the assay with NCI-H1975 is > 1 µM; in [7], > 1 µM; in the assay on HepG2, 0.302 µM; in the assay on HUVEC, 0.718 µM; in [9], > 1 µM; in the assay on MDA-MB-231 it was > 1 µM. The EC50 (with HT-29; in assay [8]; with A549) was > 1 µM throughout.

Take `CNC(=O)c1cc2cc(NCc3cc(NC(=O)c4ccc(CN5CCN(C)CC5)cc4)ccc3C)cnc2[nH]1`: the inhibition in assay [1] came to 99%; in [2] it was 86%; in assay [3], 23%; in assay [4] it was 95%; in assay [5], 93%; in assay [6], 98%. Besides, the EC50 with HepG2 and in the assay with HUVEC was > 1 µM each time.

`C#Cc1cccc(Nc2ncnc3cc(OCCOC)c(OCCOC)cc23)c1` [ERLOTINIB]: the EC50 (in the assay with NCI-H1975; in assay [7]; in assay [10]; in [9]; with MDA-MB-231; with HT-29) was > 1 µM in each case. Besides, the EC50 (in assay [8]; in the assay with A549) was > 1 µM throughout.

For `COC(=O)c1cc2cc(NCc3cc(NC(=O)c4ccc(CN5CCC(N(C)C)C5)c(C(F)(F)F)c4)ccc3C)cnc2[nH]1` (centres undefined), the inhibition in [1] amounted to 80%; in assay [2], 92%; in assay [3] it was 75%; in assay [4], 90%; in assay [5] it was 96%; in assay [6], 96%. Besides, the EC50 with HepG2 came out at 0.673 µM; in the assay on HUVEC it was 0.689 µM.

In the case of `CCN(CC)CCNC(=O)c1c(C)[nH]c(/C=C2\C(=O)Nc3ccc(F)cc32)c1C` [SUNITINIB], the EC50 (in the assay with NCI-H1975; in [10]; in [9]; in the assay with MDA-MB-231; in [8]) was > 1 µM in each case.

For the compound `COC(=O)c1cc2cc(NCc3cc(NC(=O)c4ccc(CN5CCN(C)CC5)cc4)ccc3C)cnc2[nH]1`, the inhibition came out at 81% in assay [1]; 60% in assay [2]; 21% in assay [3]; 85% in assay [4]; 73% in assay [5]; 93% in assay [6]. Also, the EC50 in the assay with HepG2 and with HUVEC was > 1 µM in each case.

For the compound `CC(=O)c1cc2cc(NCc3cc(NC(=O)c4ccc(CN5CCC(N(C)C)C5)c(C(F)(F)F)c4)ccc3C)cnc2[nH]1` (centres undefined), the EC50 in [7] is 0.179 µM; with HepG2 it was 0.275 µM; in the assay on HUVEC, 0.097 µM; in the assay on HT-29 it was 0.15 µM; with A549 it was 0.204 µM. The inhibition in assay [1] turned out to be 94%; in assay [2] it was 56%; in assay [3], 58%; in [4], 73%; in assay [5], 71%; in assay [6], 91%.

As to `CC(=O)c1cc2cc(CCc3cc(NC(=O)c4ccc(CN5CCN(C)CC5)cc4)ccc3C)cnc2[nH]1`, the inhibition was determined as 86% in [1]; 67% in assay [2]; 18% in assay [3]; 86% in assay [4]; 92% in assay [5]; 77% in [6]. Besides, the EC50 in the assay on HepG2 was > 1 µM; in the assay with HUVEC, 0.118 µM.

What is called inhibition is the relative decrease from the control value, in per cent. The EC50 is the concentration giving half of the maximal effect. A low value points to greater potency.
